Legend:
Assay type in all cases: binding
[1] = molecular target: T1, SD1 (structural domain 1 of scytovirin) (Scytonema varium, UniProt P86041); assay: differential scanning calorimetry; details: 10 mM sodium phosphate pH 7.4, 3 mM sodium azide; 20 µM protein, 60 °C/h; shift is a decrease (destabilization)
T1 construct: isolated N-terminal domain SD1 (residues 1-48), recombinant from E. coli, purified
T1 sequence (P86041 1-48): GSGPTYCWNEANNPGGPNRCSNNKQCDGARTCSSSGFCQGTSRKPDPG

scytovirin (SVN) [2] = molecular target: T2, scytovirin (SVN) (Scytonema varium, UniProt P86041); assay: isothermal titration calorimetry; details: 10 mM sodium phosphate pH 7.4, 3 mM sodium azide, 30 °C; one set of identical sites
T2 sequence (P86041 1-95): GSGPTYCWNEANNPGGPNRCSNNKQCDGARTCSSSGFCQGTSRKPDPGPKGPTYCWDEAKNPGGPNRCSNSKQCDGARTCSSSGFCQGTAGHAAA
Excerpt: isothermal titration calorimetry on scytovirin (SVN)

scytovirin (SVN) [3] = molecular target: T2, scytovirin (SVN); assay: differential scanning calorimetry; details: 10 mM sodium phosphate pH 7.4, 3 mM sodium azide; 20 µM protein, 60 °C/h; Tm of the complex, not a shift; free SVN in the 2nd table, row 3
Excerpt: differential scanning calorimetry on scytovirin (SVN)

| ΔTm [1] | Kd (scytovirin (SVN) [2]) [µM] | Tm °C (scytovirin (SVN) [3]) [°C] | Substance |
| --- | --- | --- | --- |
| ~ 11.5 °C | 17.8 ± 2.75 | – | tetramannoside |
| – | 3.99 ± 0.93 | 56.50 ± 0.05 | nonamannoside |

— article PMC9034974, “Physicochemical characterization of the recombinant lectin scytovirin and microbicidal activity of the SD1 domain produced in rice against HIV-1” (Plant Cell Reports, 2022)
